Data: patent US20060014702A1, “Antimicrobial agent” (priority 2002, published 2006)
≈ marks a conversion by molar mass, not a printed value.

Key:
Test in all cases: Minimum Inhibitory Concentration (MIC) assay
Format in all cases: cell-based
[1] = tested on: Bacillus subtilis; details: LB broth, 37° C., 6 hours
Protocol: (§1) Inhibition of various bacteria by compounds 4 (n=9) and 6 (n=9) is described in Table 1. The biological data were determined by minimum Inhibitory Concentration (MIC) Assays. Each compound was added to 4 ml LB broth at a starting concentration of 200 μg/ml. Serial dilutions were then made, 1 in 2 at each step, ending with 0.2 μg/ml. 5 μL of a saturated culture was added to each serial dilution, and incubated at 37° C. with shaking for 6 hours. The MIC was then determined as the lowest concentration showing inhibited bacterial growth.

[2] = tested on: Enterococcus faecalis; details: LB broth, 37° C., 6 hours
Protocol: as §1

[3] = tested on: Mycobacterium smegmatis; details: Mycolicibacterium smegmatis, LB broth, 37° C., 6 hours
Protocol: as §1

[4] = tested on: Staphylococcus aureus; details: LB broth, 37° C., 6 hours
Protocol: as §1

SMILES | MIC [1] | MIC [2] | MIC [3] | MIC [4]
CCCCCCCCCCS[C@@H]1O[C@@H]([C@H](O)CO)[C@H](O)[C@H]1O [4 (n = 9), Decyl 1-thio-β-D-galactofuranoside] | 25 µg/mL (≈ 74.3 µM) | > 200 µg/mL | < 0.2 µg/mL | < 0.2 µg/mL
CCCCCCCCCCC(CCCCCCCCCC)S[C@@H]1O[C@@H]([C@H](O)CO)[C@H](O)[C@H]1O [6 (n = 9), 11-heneicosanyl 1-thio-β-D-galactofuranoside] | > 200 µg/mL | 200 µg/mL (≈ 408 µM) | < 0.2 µg/mL | < 0.2 µg/mL
